Here are results for nine compounds from patent US9845285B2, “Crystalline solid and amorphous forms of (−)-halofenate and methods related thereto” (CymaBay Therapeutics, Inc., priority 2005, dated 2017).

Data set [1] concerns the target cytochrome P450 2C9 (Homo sapiens, UniProt P11712). The settings on record: cited from earlier work.
The conditions of data set [2]: cited from earlier work.
A short description of data set [3]: physchem. The settings on record: for solubility: thermodynamic from solid. The procedure: Solubility studies were done on Form A in water and a variety of organic solvents. […] Solubility was also determined in these solvents at approximately 50° C.
The nature of data set [4]: Slurry interconversion studies in cyclohexane. The format is physicochemical. Conditions: for form resulting from slurry: cyclohexane, ambient temperature, 50° C. and 5° C. The procedure: Samples of mixed forms by XRPD and pure forms were used for interconversion studies (see FIG. 37).
A saturated solution was prepared by vortexing and sonicating ca. 4 mg (−)-halofenate Form A in approximately 5-6 mL cyclohexane. This solution was filtered into a sample containing a mixture of ca. 40 mg Form A/Form D. The mixture was slurred on a rotating wheel at ambient temperature for approximately 6 days. The solids were recovered by vacuum filtration and vacuum dried at ambient temperature. The dry solids were analyzed by polarized light microscopy and XRPD.
The experiment was repeated using a shaker block at ca 50° C. using 2 mL of cyclohexane and slurried for ca. 3 days. and the supernatant was removed through decantation. Both the ambient and 50° C. experiments were repeated using pure forms A and E (ca. 20 mg of each form). The ambient experiment was also repeated with A, B, D, and E (ca. 10 mg of each form, slurred approximately 7 days) on a rotating wheel and on a magnetic stir plate in the refrigerator (ca 5° C.). When conversion was not deemed complete by XRPD solids were re-slurried in cyclohexane.
Interconversion studies were carried out in cyclohexane at ambient temperature 50° C. and 5° C. (see FIG. 37). The solvent was chosen because of the high solubility of the various forms in common organic solvents. Forms A, B, D and E were used as starting materials.

A short description of data set [5]: Automated moisture sorption/desorption. The format is physicochemical. Conditions: for solid form after moisture sorption/desorption: XRPD after desorption. On the procedure:
Moisture sorption/desorption data were collected on a VTI-SGA-100 Vapor Sorption Analyzer. Sorption and desorption data were collected over a range of 5% to 95% relative humidity (RH) at 10% RH intervals under a nitrogen purge. Samples were not dried prior to analysis. Equilibrium criteria used for analysis were less than 0.0100% weight change in 5 minutes with a maximum equilibration time of 3 hours if the weight criterion was not met. Data were not corrected for the initial moisture content of the samples. Sodium chloride and polyvinylpyrolidone were used as calibration standards. A sample was taken after desorption was complete and analyzed by powder X-ray diffraction for potential form change.

A short description of data set [6]: Solid form stability on drying, slurrying and storage. The format is physicochemical. Conditions: for conversion to other solid forms: upon drying, slurrying or over time.
Data set [7] can be described thus: Thermal analysis (DSC/TGA), decomposition. The format is physicochemical. On the procedure:
Differential scanning calorimetry (DSC) was performed using a TA Instruments 2920 differential scanning calorimeter. The sample was placed into an aluminum DSC pan and the weight accurately recorded. The pan was covered with a lid and then crimped. The sample cell was equilibrated at 25° C. and heated under a nitrogen purge at a rate of 10° C./min, up to a final temperature of 350° C. Indium metal was used as the calibration standard. Reported temperatures are at the transition maxima.
Thermographic analyses (TGA) was performed using a TA Instruments 2920 thermographic analyzer. The sample was placed into an aluminum sample pan and inserted into a TGA furnace. The sample was first equilibrated at 25° C., then heated under a nitrogen at a rate of 10° C./min, up to a final temperature of 350° C. Nickel and ALUMEL™ were used as calibration standards.

Where two headings read alike, the source gives them in different places.

Chain of cytochrome P450 2C9 (P11712 whole entry): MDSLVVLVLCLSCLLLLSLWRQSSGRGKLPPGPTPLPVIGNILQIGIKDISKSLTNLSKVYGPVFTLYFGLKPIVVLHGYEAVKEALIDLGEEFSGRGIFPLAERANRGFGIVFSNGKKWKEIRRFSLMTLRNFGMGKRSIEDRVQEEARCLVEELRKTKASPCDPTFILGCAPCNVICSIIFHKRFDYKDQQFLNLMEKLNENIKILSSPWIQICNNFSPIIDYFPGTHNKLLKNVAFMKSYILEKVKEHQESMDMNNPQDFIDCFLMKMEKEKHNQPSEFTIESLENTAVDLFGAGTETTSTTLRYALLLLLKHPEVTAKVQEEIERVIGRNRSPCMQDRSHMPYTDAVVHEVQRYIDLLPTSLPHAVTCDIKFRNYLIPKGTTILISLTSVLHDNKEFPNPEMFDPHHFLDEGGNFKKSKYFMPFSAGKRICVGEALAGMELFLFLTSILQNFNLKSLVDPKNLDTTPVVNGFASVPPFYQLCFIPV

As for `O=C(O)C(Oc1cccc(C(F)(F)F)c1)c1ccc(Cl)cc1` (racemic) [halofenic acid, 4-Chlorophenyl-(3-trifluoromethylphenoxy)-acetic acid], in data set [1], the “inhibition of cytochrome P450 2C9” value is given as “inhibited”.
In the case of `CC(=O)NCCOC(=O)C(Oc1cccc(C(F)(F)F)c1)c1ccc(Cl)cc1` (racemic) [racemic halofenate, 2-acetamidoethyl 4-chlorophenyl-(3-trifluoromethylphenoxy)-acetate], the side effects result in data set [2] (Friedberg et al., Clin. Res. 1986) was “gastrointestinal bleeding from stomach and peptic ulcers”. Further, the drug-drug interactions result in data set [2] (with agents such as warfarin sulfate (COUMADIN), Vesell and Passantanti 1972) is “some indications of drug-drug interactions”.
As for `O=C(O)C(Oc1cccc(C(F)(F)F)c1)c1ccc(Cl)cc1` (single isomer, unassigned; (-)) [(−)-enantiomer of halofenic acid], the “ability to inhibit cytochrome P450 2C9 compared to the (+)-enantiomer (less active)” value in data set [1] (versus (+)-enantiomer of halofenic acid, U.S. Pat. No. 6,262,118) was “about twenty-fold”.
Turning to `CC(=O)NCCOC(=O)C(Oc1cccc(C(F)(F)F)c1)c1ccc(Cl)cc1` (single isomer, unassigned; (-)) [(−)-halofenate, (−)-2-acetamidoethyl 4-chlorophenyl-(3-trifluoromethylphenoxy)-acetate], the solubility in data set [3] (organic solvent or mixture) is above 300 mg/mL; in data set [3] (water), below 1 mg/mL.
`CC(=O)NCCOC(=O)C(Oc1cccc(C(F)(F)F)c1)c1ccc(Cl)cc1` (stereo not shown) [Form A]: the “form resulting from slurry” value in data set [4] is on record as “resulted in Form A”. Further, the “relative stability of crystal form” value in data set [4] (from slurry interconversion in cyclohexane) is on record as “most stable crystal form”. Also, the hygroscopicity result in data set [5] is given as “non-hygroscopic”. Besides, the “solid form after moisture sorption/desorption” value in data set [5] is “essentially unchanged”. The results for the weight gain result in data set [5] (at 65% relative humidity (RH)) and in data set [5] (at 65-95% RH) were “no weight gain” and 1.6%, respectively. In addition, the “loss of weight gain in desorption study” value in data set [5] (desorption at 5% RH) was “All of the weight gain was lost”. Also, the results for the “relative thermodynamic stability of crystalline solid form” value in data set [6] and in data set [6] (listed as form A) were “most thermodynamically stable” and “most stable crystalline solid form”, respectively. In data set [6] (long periods (months)), the storage stability result is “could be stored for long periods (months) without decomposition”. The “relative solubility in crystallization solvents” value in data set [3] (some crystallization solvents) was “lower solubility”. For the same compound, in data set [7], the decomposition onset entry is “approximately 200 °C”.
For `CC(=O)NCCOC(=O)C(Oc1cccc(C(F)(F)F)c1)c1ccc(Cl)cc1` (stereo not shown) [Form B], the “form resulting from slurry” value in data set [4] is given as “resulted in Form A”. Besides, the “conversion to other solid forms” value in data set [6] is “could be converted to other solid forms upon drying or slurrying”.
For `CC(=O)NCCOC(=O)C(Oc1cccc(C(F)(F)F)c1)c1ccc(Cl)cc1` (stereo not shown) [Form C], the “conversion to other solid forms” value in data set [6] is listed as “could be converted to other forms upon drying or slurrying”; in data set [6] (listed as form C), “over time conversion to crystal form E (below) occurred”.
In the case of `CC(=O)NCCOC(=O)C(Oc1cccc(C(F)(F)F)c1)c1ccc(Cl)cc1` (stereo not shown) [Form D], the “form resulting from slurry” value in data set [4] is on record as “resulted in Form A”. In data set [5], the hygroscopicity entry is “non-hygroscopicity” and the “solid form after moisture sorption/desorption” value is “remained Form D”. The weight gain result in data set [5] (at 95% RH) is “less than 0.1%”. Further, the “conversion to other solid forms” value in data set [6] is given as “could be converted to Form A upon slurring”. Also, the decomposition onset result in data set [7] is “approximately 225 °C”.
As to `CC(=O)NCCOC(=O)C(Oc1cccc(C(F)(F)F)c1)c1ccc(Cl)cc1` (stereo not shown) [Form E], the “form resulting from slurry” value in data set [4] is on record as “resulted in Form A”. Also, in data set [5], the hygroscopicity entry is “non-hygroscopicity” and the “solid form after moisture sorption/desorption” value is recorded as “remained Form E”. Moreover, in data set [5] (at 95% RH), the weight gain entry is “less than 0.2%”. Further, in data set [6], the “conversion to other solid forms” value is recorded as “could be converted to Form A upon slurring”. The decomposition onset entry in data set [7] is “approximately 225 °C”.
